Experimental findings from ChEMBL document CHEMBL5465560, “Selectivity Literature for EUbOPEN Chemogenomic Library” (2024) are described below.

Test [1] has as its target Serine/threonine-protein kinase PAK 1 (Homo sapiens) (UniProt Q13153). Particulars: at 10 µM.
Test [2] deals with Cannabinoid receptor 2 (Homo sapiens) (UniProt P34972). As to the kind of experiment: Selectivity interaction (Panel of kinases, GPCRs, ion channels and transporters (enzymatic assay)) EUB0000223bCl CNR2.
In test [3] the target is T1, Phosphatidylinositol 3-kinase C2 domain-containing subunit gamma (Homo sapiens) (UniProt O75747).
T1 sequence (whole entry): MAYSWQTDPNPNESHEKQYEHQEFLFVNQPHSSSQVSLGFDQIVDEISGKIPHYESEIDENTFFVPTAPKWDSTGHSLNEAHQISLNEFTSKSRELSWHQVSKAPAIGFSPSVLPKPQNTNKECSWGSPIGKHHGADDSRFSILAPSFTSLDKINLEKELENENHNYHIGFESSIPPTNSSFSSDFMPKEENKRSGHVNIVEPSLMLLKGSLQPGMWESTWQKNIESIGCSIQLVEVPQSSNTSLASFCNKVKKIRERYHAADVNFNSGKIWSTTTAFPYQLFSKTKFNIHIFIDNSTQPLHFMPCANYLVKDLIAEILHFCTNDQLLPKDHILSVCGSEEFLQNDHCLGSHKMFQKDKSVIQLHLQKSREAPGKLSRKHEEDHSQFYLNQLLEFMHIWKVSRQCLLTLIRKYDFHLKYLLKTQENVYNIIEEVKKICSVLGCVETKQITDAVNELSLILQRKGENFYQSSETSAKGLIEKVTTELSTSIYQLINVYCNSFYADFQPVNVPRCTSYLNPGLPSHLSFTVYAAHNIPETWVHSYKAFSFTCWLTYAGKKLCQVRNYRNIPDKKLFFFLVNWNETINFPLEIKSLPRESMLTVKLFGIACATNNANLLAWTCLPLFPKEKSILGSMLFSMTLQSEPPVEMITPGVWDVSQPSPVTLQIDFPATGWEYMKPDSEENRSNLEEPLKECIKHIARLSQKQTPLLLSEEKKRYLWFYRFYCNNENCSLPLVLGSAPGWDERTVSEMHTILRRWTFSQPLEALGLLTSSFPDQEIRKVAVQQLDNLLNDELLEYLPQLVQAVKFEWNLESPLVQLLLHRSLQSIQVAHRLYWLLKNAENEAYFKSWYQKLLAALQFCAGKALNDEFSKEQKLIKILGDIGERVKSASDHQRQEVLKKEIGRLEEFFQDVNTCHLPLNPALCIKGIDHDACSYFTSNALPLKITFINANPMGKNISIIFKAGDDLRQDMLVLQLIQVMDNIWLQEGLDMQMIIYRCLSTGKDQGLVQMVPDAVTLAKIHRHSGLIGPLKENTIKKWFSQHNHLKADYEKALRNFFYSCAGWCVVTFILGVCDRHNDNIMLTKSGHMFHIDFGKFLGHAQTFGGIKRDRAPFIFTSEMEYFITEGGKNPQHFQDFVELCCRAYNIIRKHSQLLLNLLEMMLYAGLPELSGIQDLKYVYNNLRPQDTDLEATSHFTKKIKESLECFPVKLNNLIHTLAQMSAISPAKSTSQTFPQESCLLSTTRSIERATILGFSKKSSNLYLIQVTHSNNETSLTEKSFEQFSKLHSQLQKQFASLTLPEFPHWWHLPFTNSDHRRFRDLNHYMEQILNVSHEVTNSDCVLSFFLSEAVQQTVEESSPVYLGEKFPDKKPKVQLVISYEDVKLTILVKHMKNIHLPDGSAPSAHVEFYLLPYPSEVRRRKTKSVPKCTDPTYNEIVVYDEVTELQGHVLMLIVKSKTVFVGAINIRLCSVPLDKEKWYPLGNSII
As to the kind of experiment: Selectivity interaction (KinomeScan (DiscoverX)) EUB0000229b PIK3C2G. Particulars: at 10 µM.

The target in test [4] is T2, Serine/threonine-protein kinase LATS2 (Homo sapiens) (UniProt Q9NRM7).
T2 sequence (whole entry): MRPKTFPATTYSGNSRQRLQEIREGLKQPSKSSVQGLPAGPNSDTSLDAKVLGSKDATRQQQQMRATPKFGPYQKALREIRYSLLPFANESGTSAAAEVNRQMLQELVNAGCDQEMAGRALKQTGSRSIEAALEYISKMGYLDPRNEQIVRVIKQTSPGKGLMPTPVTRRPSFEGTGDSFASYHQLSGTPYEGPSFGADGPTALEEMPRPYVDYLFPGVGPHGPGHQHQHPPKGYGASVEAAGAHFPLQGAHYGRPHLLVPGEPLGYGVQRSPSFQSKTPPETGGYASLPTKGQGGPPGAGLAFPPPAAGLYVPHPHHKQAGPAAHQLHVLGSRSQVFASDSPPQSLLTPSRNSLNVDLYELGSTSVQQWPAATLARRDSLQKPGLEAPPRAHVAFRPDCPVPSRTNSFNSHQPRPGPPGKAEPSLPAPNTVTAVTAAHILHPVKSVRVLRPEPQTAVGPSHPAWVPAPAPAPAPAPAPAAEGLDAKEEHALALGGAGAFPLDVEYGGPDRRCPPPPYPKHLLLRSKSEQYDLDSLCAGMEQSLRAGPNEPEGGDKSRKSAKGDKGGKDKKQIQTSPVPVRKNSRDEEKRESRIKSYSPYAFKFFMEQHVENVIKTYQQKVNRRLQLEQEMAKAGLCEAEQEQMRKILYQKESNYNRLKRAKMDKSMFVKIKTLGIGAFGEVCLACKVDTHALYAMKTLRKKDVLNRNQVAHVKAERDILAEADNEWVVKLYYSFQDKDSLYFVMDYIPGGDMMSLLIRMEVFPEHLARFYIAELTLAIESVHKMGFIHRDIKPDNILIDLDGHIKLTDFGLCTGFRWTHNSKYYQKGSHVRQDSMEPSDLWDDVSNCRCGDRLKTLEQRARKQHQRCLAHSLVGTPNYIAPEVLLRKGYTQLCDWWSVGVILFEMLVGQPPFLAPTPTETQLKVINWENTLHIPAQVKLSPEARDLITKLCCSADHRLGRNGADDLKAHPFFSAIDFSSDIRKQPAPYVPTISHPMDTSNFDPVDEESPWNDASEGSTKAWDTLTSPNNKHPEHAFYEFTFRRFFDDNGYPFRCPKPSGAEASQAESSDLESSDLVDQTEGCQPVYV
Description: Selectivity interaction (ActivX KiNativ screen (ex vivo kinase selectivity in human PBMCs)) EUB0001619a LATS2. Particulars: PBMC, at 1 µM. Format: cell-based.

Some results are limits rather than exact numbers.

Cannabinoid receptor 2 (Homo sapiens), sequence (P34972 whole entry, the tested form may be a part): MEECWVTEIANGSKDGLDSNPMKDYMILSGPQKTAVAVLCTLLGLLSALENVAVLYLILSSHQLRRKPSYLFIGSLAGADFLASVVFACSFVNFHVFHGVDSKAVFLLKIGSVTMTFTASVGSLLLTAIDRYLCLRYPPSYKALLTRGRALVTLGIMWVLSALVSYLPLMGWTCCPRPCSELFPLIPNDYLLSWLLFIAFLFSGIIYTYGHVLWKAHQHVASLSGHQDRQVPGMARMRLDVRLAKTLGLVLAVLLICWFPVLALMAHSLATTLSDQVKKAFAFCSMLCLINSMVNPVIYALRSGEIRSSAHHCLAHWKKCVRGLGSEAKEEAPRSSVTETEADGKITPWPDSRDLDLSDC
Serine/threonine-protein kinase PAK 1 (Homo sapiens), sequence (Q13153 whole entry): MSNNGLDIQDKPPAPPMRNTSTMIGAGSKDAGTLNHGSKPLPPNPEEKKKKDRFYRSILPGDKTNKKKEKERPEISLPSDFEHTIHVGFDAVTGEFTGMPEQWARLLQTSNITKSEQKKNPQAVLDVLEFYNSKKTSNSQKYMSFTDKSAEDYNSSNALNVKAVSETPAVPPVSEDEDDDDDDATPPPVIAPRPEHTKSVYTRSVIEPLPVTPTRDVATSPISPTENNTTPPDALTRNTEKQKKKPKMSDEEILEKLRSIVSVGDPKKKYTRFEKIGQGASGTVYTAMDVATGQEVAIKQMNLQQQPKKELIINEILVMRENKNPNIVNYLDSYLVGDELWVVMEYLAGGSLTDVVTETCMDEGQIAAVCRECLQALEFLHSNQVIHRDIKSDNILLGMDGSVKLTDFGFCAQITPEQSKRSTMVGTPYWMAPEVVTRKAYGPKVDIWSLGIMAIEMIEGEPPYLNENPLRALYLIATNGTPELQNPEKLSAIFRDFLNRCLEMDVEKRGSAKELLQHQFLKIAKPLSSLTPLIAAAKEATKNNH

For `Cc1cc([C@@H](C)Nc2ccccc2C(=O)O)c2nc(N3CCOCC3)cc(=O)n2c1` [AZD-6482], the % of control in test [1] was found to be 100%.
As for `COc1cc(C(=O)N2CC[C@@H](O)[C@@H](N)C2)cc2nc(-c3cc4ccccc4n3CC3CC3)n(C)c12`, in test [2], the pXC50 was < 4.5 M.
As to `COc1cc(N(C)c2ccnc3ccc(C(F)(F)F)cc23)cc(OC)c1OC`, in test [3], the % binding was determined as 75%.
For the compound `N#Cc1cccc(-c2c[nH]c3ncnc(N4CCOCC4)c23)c1`, the % of inhibition in test [4] was 16%.
